Measurements from ChEMBL document CHEMBL1129281, “Effect of linking bridge modifications on the antipsychotic profile of some phthalimide and isoindolinone derivatives” (J Med Chem, 1996).
pIC50: −log10 of the molar value.

Key:
[1] = molecular target: T1, 5-hydroxytryptamine receptor 1A (Rattus norvegicus, UniProt P19327); experiment: Inhibition of [3H]8-OH-DPAT binding at serotonin 5-hydroxytryptamine 1A receptor from rat hippocampus tissue.; type: tissue-based
T1 sequence (P19327 whole entry): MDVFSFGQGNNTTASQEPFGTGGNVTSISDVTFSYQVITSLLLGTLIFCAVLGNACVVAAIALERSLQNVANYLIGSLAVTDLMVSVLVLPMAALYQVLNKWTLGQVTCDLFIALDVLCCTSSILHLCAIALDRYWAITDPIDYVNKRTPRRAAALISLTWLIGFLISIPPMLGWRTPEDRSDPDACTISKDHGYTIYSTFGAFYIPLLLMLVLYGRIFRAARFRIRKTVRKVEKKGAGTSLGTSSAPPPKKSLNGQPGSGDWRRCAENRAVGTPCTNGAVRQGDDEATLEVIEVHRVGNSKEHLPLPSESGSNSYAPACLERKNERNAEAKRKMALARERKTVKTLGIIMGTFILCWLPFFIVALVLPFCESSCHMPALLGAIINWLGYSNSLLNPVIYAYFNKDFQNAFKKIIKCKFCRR

[2] = molecular target: Serotonin 2 (5-HT2) receptor (Rattus norvegicus, UniProt P30994+P08909+P14842); experiment: Inhibition of [3H]ketanserin binding at 5-hydroxytryptamine 2 receptor from rat frontal cortex.
[3] = tested on: Mus musculus; experiment: In vivo inhibition of apomorphine-induced climbing response in mice.; type: functional

Structure (SMILES) | pIC50 [1] | IC50 [2] [µM] | ED50 [3] [mg/kg]
O=C1c2ccccc2CN1C1CCC(N2CCN(c3nsc4ccccc34)CC2)CC1 (configuration not stated) | 6.85 | 0.12 | 11.7
O=C1c2ccccc2CN1CC#CCN1CCN(c2nsc3ccccc23)CC1 | – | 0.018 | > 25
O=C1c2ccccc2CN1CCOCCN1CCN(c2nsc3ccccc23)CC1 | – | 0.0017 | > 25
O=C1c2ccccc2CN1CCCCN1CCN(c2nsc3ccccc23)CC1 | – | – | 6.8
O=C1c2ccccc2CN1C/C=C\CN1CCN(c2nsc3ccccc23)CC1 | – | 0.0055 | 13.9
O=C1c2ccccc2CN1CCCCCN1CCN(c2nsc3ccccc23)CC1 | 8.57 | 0.0022 | 20
O=C(CCCN1CCC(O)(c2ccc(Cl)cc2)CC1)c1ccc(F)cc1 [HALOPERIDOL] | – | – | 2
O=C1c2ccccc2C(=O)N1CCCCN1CCN(c2nsc3ccccc23)CC1 | – | – | 1.1

Second part, led by results:

pIC50 [1] | IC50 [2] [µM] | Structure (SMILES) | ED50 [3] [mg/kg]
8.70 | 0.0018 | O=C1c2ccccc2C(=O)N1CCCCCN1CCN(c2nsc3ccccc23)CC1 | 27
6.38 | 0.043 | O=C1c2ccccc2C(=O)N1CC#CCN1CCN(c2nsc3ccccc23)CC1 | > 25
7.89 | 0.006 | O=C1c2ccccc2C(=O)N1CCCN1CCN(c2nsc3ccccc23)CC1 | > 25
7.62 | 0.0032 | O=C1c2ccccc2C(=O)N1C/C=C\CN1CCN(c2nsc3ccccc23)CC1 | > 25
7.40 | 0.0098 | O=C1c2ccccc2CN1CCN1CCN(c2nsc3ccccc23)CC1 | > 25
7.27 | 0.03 | O=C1c2ccccc2C(=O)N1CCN1CCN(c2nsc3ccccc23)CC1 | > 25
7.27 | 0.0054 | O=C1c2ccccc2C(=O)N1CCOCCN1CCN(c2nsc3ccccc23)CC1 | > 25
– | 0.0017 | O=C1c2ccccc2CN1C/C=C/CN1CCN(c2nsc3ccccc23)CC1 | 17.6
8.33 | 0.00078 | O=C1c2ccccc2C(=O)N1C/C=C/CN1CCN(c2nsc3ccccc23)CC1 | 12.7
6.41 | 0.013 | O=C1c2ccccc2CN1CCCN1CCN(c2nsc3ccccc23)CC1 | > 25
7.72 | 0.004 | O=C1c2ccccc2C(=O)N1CC1CC1CN1CCN(c2nsc3ccccc23)CC1 (configuration not stated) | 22.9
